Assay results taken from publication PMC4994518 (Journal of medicinal chemistry, 2010).

Columns and labels:
[1] = test system: MDA-MB-231 breast tumor cell line; assay: Growth inhibition of MDA-MB-231 breast tumor cell line; type: cell-based, human; details: for inhibition at 10 µM: Homo sapiens, MDA-MB-231, read-out: % growth inhibition at 10 μM
[2] = molecular target: Human recombinant PDE 5A (Homo sapiens, UniProt O76074); assay: Phosphodiesterase assay; type: biochemical; details: for % PDE 5 inhibition at 10 μM: recombinant human PDE5, 10 μM, duplicate values

SMILES	% PDE 5 inhibition at 10 μM [2]	inhibition at 10 µM [1] [%]	also measured
COC(=O)[C@H]1Cc2c([nH]c3ccccc23)[C@H](c2ccc(Cl)c(Cl)c2)N1 [Compound 6, (1S,3R)Methyl-1-(3,4-dichlorophenyl)-2,3,4,9-tetrahydro-1H-β-carboline-3-carboxylate]	–	–	IC50 ([1]; read-out: growth inhibition IC50 (μM) and CI at p < 0.05, MDA-MB-231, at least 8 concentrations, quadruple replicates, CI in brackets): < 10 µM
CCN1C(=O)[C@@H]2Cc3c([nH]c4ccccc34)[C@@H](c3ccc(Cl)cc3Cl)N2C1=O [Compound 14, (5R,11aS) 5-(2,4-Dichlorophenyl)-2-ethyl-5,6,11,11a-tetrahydro-1H-imidazo [1′,5′:1,6] pyrido[3,4-b]indole-1,3(2H)-dione]	–	–	selectivity index ([2]; IC50 of PDE11A (cGMP)/IC50 of PDE5A (cGMP)): > 200
COC(=O)[C@H]1Cc2c([nH]c3ccccc23)[C@@H](c2ccc(Cl)cc2Cl)N1C(=O)CCl [Compound 31, (1R,3R)Methyl 1-(2,4-Dichlorophenyl)-2-(2-chloroacetyl)-2,3,4,9-tetrahydro-1H-β-carboline-3-carboxylate]	–	98	–
COC(=O)[C@H]1Cc2c([nH]c3ccccc23)[C@H](c2ccc(Cl)cc2Cl)N1C(=O)CCl [Compound 32, (1S,3R)Methyl 1-(2,4-Dichlorophenyl)-2-(2-chloroacetyl)-2,3,4,9-tetrahydro-1H-β-carboline-3-carboxylate]	–	98	growth inhibitory potency relative to 31 ([1]; MDA-MB-231): ~10 times

Further lines, with some results ahead:

% PDE 5 inhibition at 10 μM [2]	SMILES	inhibition at 10 µM [1] [%]	also measured
inactive	COC(=O)[C@H]1Cc2c([nH]c3ccccc23)[C@@H](c2c(Cl)cccc2Cl)N1 [Compound 9, (1R,3R)Methyl-1-(2,6-dichlorophenyl)-2,3,4,9-tetrahydro-1H-β-carboline-3 carboxylate]	–	–
inactive	COC(=O)[C@@H]1Cc2c([nH]c3ccccc23)[C@H](c2c(Cl)cccc2Cl)N1 [Compound 10, (1S,3S)Methyl-1-(2,6-dichlorophenyl)-2,3,4,9-tetrahydro-1H-β-carboline-3-carboxylate]	–	–
